Test results reported in patent publication US7928099B2, “Pyrimido [4,5-D] azepine derivatives as 5-HT2c agonists” (Pfizer Inc, priority 2007, dated 2011).
Where a name gives a salt, the structure may show the parent alone.

How the values were obtained:
[1] = target: T1, human recombinant 5-HT2c receptor (Homo sapiens, UniProt P28335); test: FLIPR fluorescent Ca2+ mobilisation agonist assay in CHO K1 cells (Method 1); type: cell-based; details: for Emax: percentage of mean maximal response to 10 μM 5-HT; for EC50: agonist affinity, FLIPR
T1 construct: expressed in transfected cells; host or cells: CHO K1 (Chinese hamster ovary), stably transfected
T1 sequence (P28335 33-458): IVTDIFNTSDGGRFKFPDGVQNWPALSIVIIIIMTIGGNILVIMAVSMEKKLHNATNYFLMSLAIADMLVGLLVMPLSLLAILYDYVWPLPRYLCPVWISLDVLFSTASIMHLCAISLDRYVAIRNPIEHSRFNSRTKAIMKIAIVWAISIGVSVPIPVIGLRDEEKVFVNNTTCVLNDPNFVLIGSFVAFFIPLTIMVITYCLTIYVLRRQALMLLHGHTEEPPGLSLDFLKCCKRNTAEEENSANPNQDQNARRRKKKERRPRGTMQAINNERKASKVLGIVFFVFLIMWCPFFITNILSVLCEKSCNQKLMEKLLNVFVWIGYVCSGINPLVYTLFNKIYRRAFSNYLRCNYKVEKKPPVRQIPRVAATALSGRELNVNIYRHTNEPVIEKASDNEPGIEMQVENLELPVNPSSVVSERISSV

[2] = target: T1, human recombinant 5-HT2c receptor; test: 3H-meselurgine radioligand binding SPA, membranes from Swiss 3T3 cells (Method 2); details: 3H-meselurgine displacement, Cheng-Prusoff; Swiss 3T3 membranes; read-out: Binding Affinity Ki
Procedure: The compounds of the invention were evaluated for biological activity by measuring the agonist affinity (EC50) and efficacy (Emax) at the human recombinant 5-HT2c receptor expressed in CHO K1 cells, using a fluorescent based Ca^2+ mobilisation assay format compatible with FLIPR technology (Method 1). Additionally, the binding activity of a compound was determined by measuring its affinity for the human recombinant 5-HT2c receptor membranes from Swiss 3T3 cells (Method 2).
The compounds were tested for biological activity by their ability to inhibit binding of the radioligand ^3H-meselurgine at the human recombinant 5-HT2C receptor expressed in the Swiss 3T3 cells using a scintillation proximity assay (SPA) technology.
Swiss 3T3 stably transfected with the 5-HT2C receptor were cultured under standard cell culture techniques. Specifically, cells were grown in 50 mL growth medium (Dulbecco's Modified Eagle's Medium (DMEM) culture media supplemented with 10% dialysed foetal calf serum (FCS), 2 mM penicillin/streptomycin and 20 μg/mL geneticin) in 225 cm^2 flasks at 37° C. and 5% CO2. Cells were grown to 60-80% confluency, harvested using trypsin-EDTA and pelleted by centrifugation for long-term storage at −80° C.
Cell pellets were thawed on ice and resuspended in 3 mL of membrane preparation buffer (see Media and Buffers for composition) per 1 mL of packed cell. The suspension was homogenised on ice for several 5 s intervals using a hand-held homogeniser. The homogenate was then centrifuged at 1,000 rpm for 5 min at 4° C.
The supernatants were then collected and retained. Initial cell & nuclei pellets (P1) were subsequently rehomogenised and centrifuged using the conditions cited above, and the supernatants collected and pooled with those retained from the first spin.
The pooled supernatants were centrifuged at 19,500 rpm for 45 min at 4° C., and the supernatants discarded. The pellets (P2) were then resuspended in 3 mL of membrane preparation buffer per 1 mL of the original packed cell volume. Protein concentrations were subsequently measured and the membrane suspension was finally frozen in aliquots of set volume and stored at −80° C. prior to use in assays.
For each batch of membrane used, optimal concentrations of Polylysine YSi SPA beads and membrane were determined. The assay free radioligand concentration was expressed as a percentage of the total free radioligand concentration to give an estimate of the radioligand depletion.
The affinity of ^3H-meselurgine for the human recombinant 5-HT2c receptor was determined for each membrane batch at the selected protein and bead concentrations. […] The mean KD for ^3H-meselurgine at a batch of membranes was determined from data from a minimum of three separate assays.
The required amount of membrane, was thawed on ice and added to a pre-determined volume of bead suspension in 50 mM HEPES buffer, pH 7.4. The beads were then pre-coupled by incubating the predetermined protein quantity per mg of bead on a roller 4° C. for 1 h. Subsequently, the bead/membrane complex was spun down at 1000 rpm for 5 min. The resulting pellet was resuspended in assay buffer at the specific concentration required for the final assay.
An aliquot of [^3H]-meselurgine stock was diluted in binding assay buffer to give a pre-determined final assay concentration less than the equilibrium dissociation constant (KD) value.
All test compounds were prepared at a concentration of 4 mM in 100% dimethyl sulphoxide (DMSO) from dry samples.
The same volume of assay buffer was added to specific wells of the plate to enable subsequent measurement of total radioligand binding. Furthermore, 5 μL of Mianserin at 25 μM (2.5 μM final assay concentration was subsequently added to pre-determined wells to determine non-specific binding (NSB).

[3] = cited from earlier work; for bladder capacity: anaesthetized guinea-pig cystometry; for urethral EMG activity: anaesthetized guinea-pig urethral EMG model
[4] = anaesthetized dog; cited from earlier work
[5] = conscious rats and monkeys; i.v., i.p., s.c. or i.m. administration; cited from earlier work
[6] = man; cited from earlier work

| SMILES | Emax ([1]; CHO-K1, efficacy) [%] | EC50 [1] [µM] | Ki [2] [µM] | also measured |
| --- | --- | --- | --- | --- |
| OC1CCN(c2nc(Cc3ccccc3)nc3c2CCNCC3)C1 (centres unmarked) [Example 44, 1-(2-benzyl-6,7,8,9-tetrahydro-5H-pyrimido[4,5-d]azepin-4-yl)pyrrolidin-3-ol hydrochloride] | 75.5 | 0.136 | 0.139 | – |
| C[C@H]1COCCN1c1nc(Cc2ccccc2)nc2c1CCNCC2 [Example 45, 2-benzyl-4-[(3S)-3-methylmorpholin-4-yl]-6,7,8,9-tetrahydro-5H-pyrimido[4,5-d]azepine hydrochloride] | 88.4 | 0.0695 | 0.0284 | – |
| CN(C)c1ncc2c(n1)CCNCC2 [Example 50, N,N-dimethyl-6,7,8,9-tetrahydro-5H-pyrimido[4,5-d]azepin-2-amine hydrochloride] | 100 | 0.481 | 0.552 | – |
| CCc1nc(Cc2ccccc2)nc2c1CCNCC2 [Example 52, 2-Benzyl-4-ethyl-6,7,8,9-tetrahydro-5H-pyrimido[4,5-d]azepine] | 71.6 | 0.314 | 0.142 | – |
| c1ccc(Cc2nc3c(c(C4CC4)n2)CCNCC3)cc1 [Example 53, 2-Benzyl-4-cyclopropyl-6,7,8,9-tetrahydro-5H-pyrimido[4,5-d]azepine] | 49.6 | 0.293 | 0.105 | – |
| c1ccc(Cc2nc3c(c(-n4ccnc4)n2)CCNCC3)cc1 [Example 55, 2-Benzyl-4-imidazol-1-yl-6,7,8,9-tetrahydro-5H-pyrimido[4,5-d]azepine] | 72.6 | 0.263 | 0.38 | – |
| Clc1cccc(Cc2ncc3c(n2)CCNCC3)c1 [Example 56, 2-(3-Chlorobenzyl)-6,7,8,9-tetrahydro-5H-pyrimido[4,5-d]azepine] | – | 0.18 | 0.0839 | Emax ([1]; efficacy): 55.9% |
| CCOc1nc(C(C)c2ccccc2)nc2c1CCNCC2 (centres unmarked) [Example 59, 4-Ethoxy-2-(1-phenylethyl)-6,7,8,9-tetrahydro-5H-pyrimido[4,5-d]azepine] | 33.1 | 0.107 | 0.0493 | – |
| Fc1ccc(Cc2ncc3c(n2)CCNCC3)cc1 [Example 62, 2-(4-Fluorobenzyl)-6,7,8,9-tetrahydro-5H-pyrimido[4,5-d]azepine] | 59.6 | 0.309 | 0.471 | – |
| FC(F)(F)c1cccc(Cc2ncc3c(n2)CCNCC3)c1 [Example 63, 2-[3-(Trifluoromethyl)benzyl]-6,7,8,9-tetrahydro-5H-pyrimido[4,5-d]azepine] | 44.1 | 0.298 | 0.308 | – |
| Cc1cccc(Cc2ncc3c(n2)CCNCC3)c1 [Example 65, 2-(3-Methylbenzyl)-6,7,8,9-tetrahydro-5H-pyrimido[4,5-d]azepine] | 83.9 | 0.211 | 0.244 | – |
| Cc1ccccc1Cc1ncc2c(n1)CCNCC2 [Example 66, 2-(2-Methylbenzyl)-6,7,8,9-tetrahydro-5H-pyrimido[4,5-d]azepine] | 70.5 | 0.332 | 0.304 | – |
| Cc1nc(Cc2ccccc2)nc2c1CCNCC2 [Example 68, 2-Benzyl-4-methyl-6,7,8,9-tetrahydro-5H-pyrimido[4,5-d]azepine] | 71.4 | 0.179 | 0.421 | – |
| CCCCc1nc(Cc2ccccc2)nc2c1CCNCC2 [Example 69, 2-Benzyl-4-butyl-6,7,8,9-tetrahydro-5H-pyrimido[4,5-d]azepine] | 77.1 | 0.274 | 0.153 | – |
| COc1nc(C(F)(F)c2ccccc2)nc2c1CCNCC2 [Example 72, 2-(Difluoro-phenyl-methyl)-4-methoxy-6,7,8,9-tetrahydro-5H-pyrimido[4,5-d]azepine] | 41.1 | 0.08 | 0.0777 | – |
| COc1nc(C(F)(F)c2ccccc2)nc2c1CCNCC2 [Example 72A, 2-(Difluoro-phenyl-methyl)-4-methoxy-6,7,8,9-tetrahydro-5H-pyrimido[4,5-d]azepine hydrochloride] | – | 0.0356 | 0.015 | Emax ([1]; efficacy): 31.9% |
| CN(CC1CC1)c1nc(N2CCSCC2)nc2c1CCNCC2 [Example 90, N-(cyclopropylmethyl)-N-methyl-2-thiomorpholin-4-yl-6,7,8,9-tetrahydro-5H-pyrimido[4,5-d]azepin-4-amine] | 87.3 | 0.0759 | 0.0247 | – |
| CCNc1nc(N(C)CC)nc2c1CCNCC2 [Example 98, N-2,N-4-diethyl-N-2-methyl-6,7,8,9-tetra-hydro-5H-pyrimido[4,5-d]-azepin-4-amine] | 61.7 | 0.077 | 0.0163 | – |
| CN(C)c1nc(N(C)CC2CC2)nc2c1CCNCC2 [Example 104, N-2-(cyclopropylmethyl)-N-2,N-4,N-4-trimethyl-6,7,8,9-tetrahydro-5H-pyrimido[4,5-d]azepine-2,4-diamine] | 69 | 0.282 | 0.0903 | – |
| C1CCN(c2nc3c(c(N4CCSCC4)n2)CCNCC3)C1 [Example 106, 2-pyrrolodin-1-yl-4-thiomorpholin-4-yl-6,7,8,9-tetrahydro-5H-pyrimido[4,5-d]azepine] | 78.4 | 0.1 | 0.0416 | – |
| C[C@H](N)Cn1ccc2cc(F)c(Cl)cc21 [Ro-60-0175] | – | – | – | bladder capacity [3]: doses related increases; urethral EMG activity [3]: doses related increases; urethral pressure [4]: increased urethral pressure in a dose-dependent manner; penile erection [5]: enhance penile erection |
| CCc1cc2c(ccc3cnn(C[C@H](C)N)c32)o1 [YM348] | – | – | – | bladder capacity [3]: doses related increases; urethral EMG activity [3]: doses related increases |
| Clc1cccc(N2CCNCC2)c1 [m-CPP] | – | – | – | bladder capacity [3]: doses related increases; urethral EMG activity [3]: doses related increases; proerectile activity [6]: associated with proerectile activity; penile erection [5]: enhance penile erection |
| O=c1n(CCCN2CCN(c3cccc(Cl)c3)CC2)nc2ccccn12 [trazodone] | – | – | – | proerectile activity [6]: associated with proerectile activity |
